Test results reported in patent US20260034123A1 (Cedilla Therapeutics, Inc., priority 2022, published 2026).

Key:
CDK2/Cyclin E1 [1] = biological target: T1, CDK2/Cyclin E1 (Homo sapiens, UniProt P24941); assay: Caliper LabChip EZ Reader mobility shift assay; assay type: biochemical; details: 2.5 nM CDK2/Cyclin E1(14-475), 100 μM ATP, 30 min preincubation; read-out: Caliper Assay (CDK2/CCNE1): IC50
Experimental: Inhibition of CDK2/Cyclin E1 activity in the presence of compounds of the present disclosure was evaluated using a Caliper LabChip® EZ Reader mobility shift assay. In the assay, activated CDK2/Cyclin E1 catalyzes the phosphorylation of a fluorescently tagged peptide 5-FAM-QSPKKG-CONH2 (PerkinElmer, FL Peptide 18) which induces a difference in capillary electrophoresis mobility. The peptide substrate and product were measured, and the conversion ratio was used to determine the inhibition (as % activity and IC50 values) of CDK2/Cyclin E1. Reactions contained 50 mM HEPES pH 7.5, 10 mM MgCl2, 1 mM EDTA, 2 mM DTT, 0.01% Brij35, 0.5 mg/mL BSA, 0.1% DMSO, 2.5 nM CDK2/Cyclin E1(14-475), 100 μM ATP, and 1.5 μM fluorescent peptide substrate.
Dose titrations of inhibitors in 100% DMSO were combined with 3.25 nM CDK2/Cyclin E1(14-475) and 130 μM of ATP in reaction buffer. The mixtures were incubated for 30 minutes before the addition of fluorescent peptide substrate to initiate the kinase reaction. The final conditions were 2.5 nM CDK2/Cyclin E1(14-475), 100 μM ATP, and 1.5 μM fluorescent peptide. The reactions were stopped after 100 minutes with the addition of EDTA (6 mM final EDTA concentration). The stopped reactions were analyzed on a Caliper LabChip® EZ Reader 11. The conversion ratios were normalized to yield % activity, plotted against compound concentration, and fit to a four-parameter equation to determine the IC50 for each compound.

CDK2/Cyclin E1 [2] = biological target: T1, CDK2/Cyclin E1; assay: ADP-Glo Luminescent Kinase Assay (CDK2/E1-37C); assay type: biochemical; details: 0.18 nM CDK2/Cyclin E1, 100 μM ATP, Histone H1, 37° C.; read-out: ADPGLO (CDK2/E1-37C): IC50
Summary of the method: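 IC50 fitted by four-parameter equation from ADP-Glo luminescence converted to % activity. Compounds were preincubated 60 min at 37 °C with enzyme, then kinase reaction ran 90 min at 37 °C with 0.18 nM enzyme, 100 μM ATP, Histone H1 ([…]), pH 7.5 HEPES, Mg2+, DTT.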

Kuramochi cells RB-WT = assay: IncuCyte Kuramochi cell proliferation assay, RB-WT; assay type: cell-based; details: 72 hours, cell count
Summary of the method: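 GI50 was derived by curve-fitting DMSO-normalized fold change in nuclear count between 0 and 72 h. Counts came from images of Kuramochi cells carrying mApple-H2B. Compounds were dosed over 10 points at 1/2-log spacing from a 20 µM top concentration.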

IC50 (CDK2/Cyclin E1 [1]) [µM]	IC50 (CDK2/Cyclin E1 [2]) [µM]	Structure (SMILES)	IC50 (Kuramochi cells RB-WT) [µM]
< 0.01	0.5 to 5	CC1(C)C[C@@H]1C(=O)N1CC2(CN(C(=O)c3cncs3)CC2COCc2cccc(-c3ccc(C(F)(F)F)cc3)c2C(=O)O)C1 (stereo partly drawn) [Compound I-4, 3-(((2-((S)-2,2-dimethylcyclopropane-1-carbonyl)-6-(thiazole-5-carbonyl)-2,6-diazaspiro[3.4]octan-8-yl)methoxy)methyl)-4′-(trifluoromethyl)-[1,1′-biphenyl]-2-carboxylic acid]	> 10
0.01 to 0.1	0.5 to 5	COC(=O)c1c(COCC2CN(C(=O)c3cncs3)CC23CN(C(=O)[C@H]2CC2(C)C)C3)cccc1-c1ccc(C(F)(F)F)cc1 (stereo partly drawn) [Compound I-5, methyl 3-(((2-((S)-2,2-dimethylcyclopropane-1-carbonyl)-6-(thiazole-5-carbonyl)-2,6-diazaspiro[3.4]octan-8-yl)methoxy)methyl)-4′-(trifluoromethyl)-[1,1′-biphenyl]-2-carboxylate]	5 to 10
1 to 10	> 10	CC1(C)C[C@@H]1C(=O)N1CC2(CN(C(=O)c3cnn(Cc4ccc(C(=O)O)cc4)c3)CC2COCc2cccc(-c3ccc(C(F)(F)F)cc3)n2)C1 (stereo partly drawn) [Compound I-6, 4-((4-(2-((S)-2,2-dimethylcyclopropane-1-carbonyl)-8-(((6-(4-(trifluoromethyl)phenyl)pyridin-2-yl)methoxy)methyl)-2,6-diazaspiro[3.4]octane-6-carbonyl)-1H-pyrazol-1-yl)methyl)benzoic acid]	> 10
0.1 to 1	0.5 to 5	Cc1c(COC[C@@H]2CN(C(=O)c3cncs3)CC23CN(C(=O)[C@H]2CC2(C)C)C3)cccc1C1CCOCC1 [Compound I-31, ((S)-2-((S)-2,2-dimethylcyclopropanecarbonyl)-8-(((2-methyl-3-(tetrahydro-2H-pyran-4-yl)benzyl)oxy)methyl)-2,6-diazaspiro[3.4]octan-6-yl)(thiazol-5-yl)methanone]	5 to 10
> 10	–	CC1(C)C[C@@H]1C(=O)N1CC2(CN(C(=O)c3cncs3)C[C@H]2COCC2CCCCO2)C1 (stereo partly drawn) [Compound I-32, ((S)-2-((S)-2,2-dimethylcyclopropane-1-carbonyl)-8-(((tetrahydro-2H-pyran-2-yl)methoxy)methyl)-2,6-diazaspiro [3.4]octan-6-yl) (thiazol-5-yl) methanone]	> 10
0.01 to 0.1	–	CC1(C)C[C@@H]1C(=O)N1CC2(CN(C(=O)c3cncs3)C[C@H]2COCc2cccc(-c3ccc(C(F)(F)F)cc3F)n2)C1 [Compound I-33, ((S)-2-((S)-2,2-dimethylcyclopropane-1-carbonyl)-8-(((6-(2-fluoro-4-(trifluoromethyl)phenyl)pyridin-2-yl)methoxy)methyl)-2,6-diazaspiro[3.4]octan-6-yl)(thiazol-5-yl) methanone]	5 to 10
> 10	–	CC(OCc1cccc(C2CCOCC2)n1)[C@@H]1CN(C(=O)c2cncs2)CC12CN(C(=O)[C@H]1CC1(C)C)C2 (stereo partly drawn) [Compound I-35, ((S)-2-((S)-2,2-dimethylcyclopropane-1-carbonyl)-8-(1-((6-(tetrahydro-2H-pyran-4-yl)pyridin-2-yl)methoxy)ethyl)-2,6-diazaspiro [3.4]octan-6-yl) (thiazol-5-yl) methanone]	> 10
> 10	–	CC1(C)C[C@@H]1C(=O)N1CC2(CN(C(=O)c3cncs3)C[C@H]2COCc2ccnn2C2CCCC2)C1 [Compound I-37, ((S)-8-(((1-cyclopentyl-1H-pyrazol-5-yl)methoxy)methyl)-2-((S)-2,2-dimethylcyclopropanecarbonyl)-2,6-diazaspiro[3.4]octan-6-yl)(thiazol-5-yl)methanone]	> 10
1 to 10	–	CC1(C)C[C@@H]1C(=O)N1CC2(CN(C(=O)c3cncs3)C[C@H]2COCc2ccc(Cl)c(Cl)c2)C1 [Compound I-40, ((S)-8-(((3,4-dichlorobenzyl)oxy)methyl)-2-((S)-2,2-dimethylcyclopropanecarbonyl)-2,6-diazaspiro[3.4]octan-6-yl)(thiazol-5-yl)methanone]	> 10
1 to 10	–	CC1(C)C[C@@H]1C(=O)N1CC2(CN(C(=O)c3cncs3)C[C@H]2COCc2ccc(C(F)(F)F)cc2)C1 [Compound I-41, ((S)-2-((S)-2,2-dimethylcyclopropane-1-carbonyl)-8-(((4-(trifluoromethyl)benzyl)oxy)methyl)-2,6-diazaspiro[3.4]octan-6-yl)(thiazol-5-yl)methanone]	> 10
1 to 10	–	CC1(C)C[C@@H]1C(=O)N1CC2(CN(C(=O)c3cncs3)C[C@H]2COCc2cncc(C3CCOCC3)c2)C1 [Compound I-42, ((S)-2-((S)-2,2-dimethylcyclopropane-1-carbonyl)-8-(((5-(tetrahydro-2H-pyran-4-yl)pyridin-3-yl)methoxy)methyl)-2,6-diazaspiro[3.4]octan-6-yl)(thiazol-5-yl)methanone]	> 10
1 to 10	–	CC1(C)C[C@@H]1C(=O)N1CC2(CN(C(=O)c3cncs3)C[C@H]2COCc2cc(C3CCOCC3)ccn2)C1 [Compound I-43, ((S)-2-((S)-2,2-dimethylcyclopropane-1-carbonyl)-8-(((4-(tetrahydro-2H-pyran-4-yl)pyridin-2-yl)methoxy)methyl)-2,6-diazaspiro[3.4]octan-6-yl)(thiazol-5-yl)methanone]	> 10
1 to 10	–	CC1(C)C[C@@H]1C(=O)N1CC2(CN(C(=O)c3cncs3)C[C@H]2COCc2cccc(C(F)(F)F)c2)C1 [Compound I-44, ((S)-2-((S)-2,2-dimethylcyclopropanecarbonyl)-8-(((3-(trifluoromethyl)benzyl)oxy)methyl)-2,6-diazaspiro[3.4]octan-6-yl)(thiazol-5-yl)methanone]	> 10
> 10	–	CC1(C)C[C@@H]1C(=O)N1CC2(CN(C(=O)c3cncs3)C[C@H]2COCc2ccnc(C3CCOCC3)c2)C1 [Compound I-45, ((S)-2-((S)-2,2-dimethylcyclopropane-1-carbonyl)-8-(((2-(tetrahydro-2H-pyran-4-yl)pyridin-4-yl)methoxy)methyl)-2,6-diazaspiro[3.4]octan-6-yl)(thiazol-5-yl)methanone]	> 10
> 10	–	CC1(C)C[C@@H]1C(=O)N1CC2(C1)CN(c1cccc3ncsc13)CC2COCc1cccc(C2CCOCC2)n1 (stereo partly shown) [Compound I-46]	> 10
> 10	–	CC1(C)C[C@@H]1C(=O)N1CC2(C1)CN(c1ncnc3ncsc13)CC2COCc1cccc(C2CCOCC2)n1 (stereo partly drawn) [Compound I-47, ((S)-2,2-dimethylcyclopropyl)(8-(((6-(tetrahydro-2H-pyran-4-yl)pyridin-2-yl)methoxy)methyl)-6-(thiazolo[4,5-d]pyrimidin-7-yl)-2,6-diazaspiro[3.4]octan-2-yl)methanone]	> 10
1 to 10	–	CC1(C)C[C@@H]1C(=O)N1CC2(CN(C(=O)c3cncs3)CC2COCc2cccc(C3=CCOCC3)n2)C1 (stereo partly shown) [Compound I-48]	> 10
1 to 10	–	CC1(C)C[C@@H]1C(=O)N1CC2(CN(C(=O)c3cncs3)C[C@@H]2COCc2cccc(C3CCOCC3)n2)C1 [Compound I-64, ((R)-2-((S)-2,2-dimethylcyclopropane-1-carbonyl)-8-(((6-(tetrahydro-2H-pyran-4-yl)pyridin-2-yl)methoxy)methyl)-2,6-diazaspiro[3.4]octan-6-yl)(thiazol-5-yl) methanone]	> 10
